From patent US20200000917A1, “METHODS OF PHOTOCHEMICAL TREATMENT FOR WOUND HEALING” (The General Hospital Corporation, priority 2017, published 2020) come the findings set out here.

Assay [1] concerns full-thickness, excisional 1 cm by 1 cm wounds on the dorsa of C57BL/6 mice. The assay can be described thus: Wound contracture after photochemical treatment (area within tattooed wound perimeter). Format: in vivo. The protocol:
(§1) By way of example, the above-described system 20 and method 10 were studied in comparison to untreated control wounds. The study was carried out according to the steps illustrated in FIG. 3. Generally, FIG. 3 illustrates a wound creation step 30, an activating agent delivery step 32, an illumination step 34, and a post-treatment step 36. More specifically, at step 30, full-thickness, excisional 1 cm by 1 cm wounds 38 were created on the dorsa of C57BL/6 mice 40 in both a control group of 16 mice and a test group of 16 mice. Additionally, dots 42 were tattooed on the skin around the wound perimeter in both the control and test groups (as shown in step 34) in order to monitor contracture over the course of wound healing. Following step 30, control group wounds were left alone to heal. With respect to the test group, at step 32, a Rose Bengal solution was painted onto wound beds 38 (e.g., as discussed above with respect to process block 12 of FIG. 1). At step 34, the wounds 38 were illuminated by an electromagnetic radiation source 26, in particular, a KTP laser having a 532-nanometer wavelength, with an energy output of 60 Joules per centimeter squared (e.g., as discussed above with respect to process block 14 of FIG. 1). Steps 32 and 34 were conducted immediately after wound creation at step 30. Step 36 illustrates the immediate result of wound treatment, that is, the photobleaching of Rose Bengal dye.
To compare the test and control groups, the area within each tattooed wound perimeter was serially measured over 6 weeks and percent contracture was calculated. Additionally, at 7, 14, 21, and 42 days, mice were euthanized and tissue was harvested for histology.

Assay [2] has the same test system. The assay can be described thus: Histology of harvested wound tissue after photochemical treatment. The note with it: days 7, 21 and 42 post wound creation; Rose Bengal solution + KTP laser 532 nm, 60 J/cm2. Format: in vivo. The protocol: as §1, with “Steps 32 and 34 were conducted immediately after wound creation at step 30. Step 36 illustrates the immediate result of wound treatment, that is, the photobleaching of Rose Bengal dye.” left out
To compare the test and control groups, the area within each tattooed wound perimeter was serially measured over 6 weeks and percent contracture was calculated. […]

With `O=C([O-])c1c(Cl)c(Cl)c(Cl)c(Cl)c1-c1c2cc(I)c(=O)c(I)c-2oc2c(I)c([O-])c(I)cc12.[Na+].[Na+]` [Rose Bengal], the “more contracture in control wounds than in test group” value in assay [1] (by day 7) is reported as about 20%. In assay [1] (day 7, Rose Bengal solution painted on wound bed, KTP laser 532 nm, 60 J/cm2, immediately after wound creation, control 80.3±8.5%, p=0.014), the percent contracture was determined as 67.1±17.1%. Also, in assay [1] (day 42, Rose Bengal solution + KTP laser 532 nm, 60 J/cm2, control 13.6±5.6%, p=0.003), the “wounds contracted to (percentage of initial area of skin around wound perimeter)” value is given as 35.2±2.9%. Further, in assay [1] (day 42, p=0.003), the “fold difference in remaining area, test group versus control group” value came to 1.59 fold. Moreover, the “histological review of wound tissue compared to control group tissue” value in assay [2] is “increased ingrowth and development of dermal cells, increased vascularity, and appearance of skin appendages earlier and to a greater degree”.
